Laboratory results as given in ChEMBL document CHEMBL2062396, “Synthesis and classical pathway Complement inhibitory activity of C7-functionalized filifolinol derivatives, inspired in K-76 COOH” (Eur J Med Chem, 2012).
pIC50: −log10 of the molar value. Counter-ions that a name gives are not always drawn.

Experiment: Inhibition of human classical pathway Complement system assessed as inhibition of complement mediated hemolysis of sensitized sheep RBCs using fresh human sera by Weissman method
Conditions: not given; call rule not given here

Row | SMILES | IC50
1 | C[C@@H]1CC[C@H](O)C(C)(C)[C@]12Cc1cc(C(=O)[O-])cc(CC(=O)O)c1O2.[Na+] | Not Active

Same assay, conditions: read-out: IC50

Row | SMILES | pIC50
2 | C[C@@H]1CC[C@H](O)C(C)(C)[C@]12Cc1cc(C(=O)O)cc(Cl)c1O2 | 2.81
3 | C[C@@H]1CC[C@H]2C(C)(C)[C@H](O)[C@H](O)C[C@]2(C)[C@@]12Cc1c(O)cc(C(=O)O)c(C=O)c1O2 | 3.24
4 | C[C@@H]1CC[C@H](O)C(C)(C)[C@]12Cc1cc(C(=O)O)cc([N+](=O)[O-])c1O2 | 2.73
5 | C[C@@H]1CC[C@H](O)C(C)(C)[C@]12Cc1cc(C(=O)O)cc(N)c1O2 | 2.14
6 | C[C@@H]1CC[C@H](O)C(C)(C)[C@]12Cc1cc(C(=O)O)cc(I)c1O2 | 2.94
7 | C[C@@H]1CC[C@H](O)C(C)(C)[C@]12Cc1cc(C(=O)O)cc(Br)c1O2 | 3.08
8 | C[C@@H]1CC[C@H](O)C(C)(C)[C@]12Cc1cc(C(=O)O)cc(C(F)(F)F)c1O2 | 4.00
9 | C[C@@H]1CC[C@H](O)C(C)(C)[C@]12Cc1cc(C(=O)O)cc(-c3ccccc3)c1O2 | 3.85
10 | C[C@@H]1CC[C@H](O)C(C)(C)[C@]12Cc1cc(C(=O)O)cc(C(=O)O)c1O2 | 2.15
11 | C[C@@H]1CC[C@H](O)C(C)(C)[C@]12Cc1cc(C(=O)O)cc(/C=C/C(=O)O)c1O2 | 3.01
12 | C[C@@H]1CC[C@H](O)C(C)(C)[C@]12Cc1cc(C(=O)O)cc(CCC(=O)O)c1O2 | 3.44
13 | C[C@@H]1CC[C@H](O)C(C)(C)[C@]12Cc1cc(C(=O)O)cc(-c3ccc(C(=O)O)cc3)c1O2 | 1.74
14 | C[C@@H]1CC[C@H](O)C(C)(C)[C@]12Cc1cc(C(=O)O)cc(CC(O)CO)c1O2 (mixture of isomers) | 3.44
15 | C[C@@H]1CC[C@H](O)C(C)(C)[C@]12Cc1cc(C(=O)O)ccc1O2 [FILIFOLINOIC ACID SODIUM SALT] | 2.70
16 | CC1(C)CC[C@]2(C(=O)O)CC[C@]3(C)C(=CC[C@@H]4[C@@]5(C)CC[C@H](OC(=O)COCC(=O)O)C(C)(C)[C@@H]5CC[C@]43C)[C@@H]2C1 [OLEANOLIC ACID HEMIDIGLYCOLATE SODIUM SALT] | 4.51
